In US6001331A, “Method of imaging amyloid deposits” (Warner-Lambert Company, priority 1998, dated 1999):
Like-named read-outs stand apart in the source and are kept apart here.

Assays:
[1] = biological target: T1, βA(1-40) amyloid aggregates (Homo sapiens, UniProt P05067); test: Competition assay with Thioflavin T (ThT) for binding to β(1-40) amyloid aggregates, fluorescence 96-well plate
T1 construct: lyophilized β(1-40) protein powder (which may be purchased from BACHEM); purchased BACHEM
From the text: Amyloid aggregates containing β(1-40) protein can also be made by methods well known to those skilled in the art. See, for example, Burdick D., Soreghan B., Kwon M., Kosmoski J., Knauer M., Henschen A., Yates J., Cotman C., and Glabe C. Assembly and aggregation properties of synthetic Alzheimer's A4/β amyloid peptide analogs. J. Biol. Chem., 267:546-554 (1992), which is hereby incorporated by reference. Briefly, lyophilized β(1-40) protein powder (which may be purchased from BACHEM) was dissolved at 10 mg/mL in hexafluoro-2-propanol and subsequently diluted to 500 μg/mL in 25 mM sodium phosphate buffer, pH 6 to induce the α-helix to β-sheet transition resulting in aggregate formation.
(§1) The ability of compounds of Formula I to compete with Thioflavin T (ThT) for binding to amyloid aggregates was measured using fluorescence in a 96-well fluorescence plate assay. As a compromise between sensitivity and signal and to facilitate comparisons between different amyloid fibrils, ThT is present at a concentration equal to the Kmapp of the particular amyloid fibril type and fibril concentrations yielding a similar fluorescence intensity are used. Insulin: 0.5 μM ThT, 2 μg per well. β(1-40): 20 μM ThT, 5 μg/well. All solutions are in 25 mM sodium phosphate buffer, pH 6.0, and the assay is performed at room temperature.
(§2) Using a multichannel pipettor, 100 μL of dilutions of the compound to be tested (0.001-30 μM final concentration in 3-fold steps) are placed in the bottom of Corning U-well polystyrene plates (Corning Company, Corning, N.Y.). 50 μL of ThT are then added to each well. The amyloid fibrils are then added to each well in a volume of 100 μL rapidly to mix the well contents. The plates are read within 5 to 30 minutes in a Millipore Cytofluor 2350 96-well fluorescence plate reader using an excitation filter of 440 nm (20 nm bandpass) and an emission filter of 485 nm (20 nm bandpass). ThT dye blanks were used to correct for the minimal fluorescence background which are subtracted from all data.
(§3) Results are expressed as % maximal fluorescence (no competing compound). […]

[2] = biological target: Insulin amyloid aggregates; test: Competition assay with Thioflavin T (ThT) for binding to insulin amyloid aggregates, fluorescence 96-well plate; settings: 0.5 μM ThT, 2 μg per well fibrils, 25 mM sodium phosphate pH 6.0, room temperature
Procedure: Burke M. J. and Rougevie M. A., Cross-β Protein Structures. I. Insulin Fibrils. […] Briefly, lyophilized insulin protein powder dissolved at 10 mg/mL in 50 mM HCl was alternately heated to 95° C. and frozen in dry ice to form amyloid aggregates.
as §1
as §2, with “The plates are read within 5 to 30 minutes in a Millipore Cytofluor 2350 96-well fluorescence plate reader using an excitation filter of 440 nm (20 nm bandpass) and an emission filter of 485 nm (20 nm bandpass).” left out
as §3

[3] = 20 μM ThT, 5 μg/well fibrils, 25 mM sodium phosphate pH 6.0, room temperature, read-out: βA(1-40), IC50

T1 sequence (P05067 672-711 limits assumed): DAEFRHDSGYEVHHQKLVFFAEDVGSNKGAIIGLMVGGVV

Structure (SMILES) | IC50 [2] [nM] | IC50 [1, 3] [nM] | IC50 [1] [nM]
CN(C)c1ccc(/C=C/c2sc3ccccc3[n+]2Cc2cccc(C(=O)c3ccccc3)c2)cc1 [Example 29, (E)-3-(3-Benzoylbenzyl)-2-[2-(4-dimethylaminophenyl)vinyl]benzothiazol-3-ium bromide] | 130 | – | 230
CN(C)c1ccc(/C=C/c2sc3ccccc3[n+]2Cc2cccc(Oc3ccccc3)c2)cc1 [Example 30, (E)-2-[2-(4-Dimethylaminophenyl)vinyl]-3-(3-phenoxybenzyl)benzothiazol-3-ium bromide] | 180 | – | 120
CN(C)c1ccc(/C=C/c2sc3ccccc3[n+]2CCCc2ccccc2)cc1 [Example 31, (E)-2-[2-(4-Dimethylaminophenyl)vinyl]-3-(3-phenylpropyl)benzothiazol-3-ium iodide] | 210 | 200 | –
CN(C)c1ccc(/C=C/c2sc3ccccc3[n+]2CCCC(c2ccccc2)c2ccccc2)cc1 [Example 33, (E)-2-[2-(4-Dimethylaminophenyl)vinyl]-3-(4,4-diphenylbutyl)benzothiazol-3-ium iodide] | 210 | 460 | –
CN(C)c1ccc(/C=C/c2sc3ccccc3[n+]2CCCOCc2ccccc2)cc1 [Example 34, (E)-3-(3-Benzyloxypropyl)-2-[2-(4-dimethylaminophenyl)vinyl]benzothiazol-3-ium iodide] | 52 | 140 | –
CN(C)c1ccc(/C=C/c2sc3ccccc3[n+]2CCCCCOc2ccccc2)cc1 [Example 37, (E)-2-[2-(4-Dimethylaminophenyl)vinyl]-3-(5-phenoxypentyl)benzothiazol-3-ium iodide] | 80 | 170 | –
CN(C)c1ccc(/C=C/c2sc3ccccc3[n+]2CCC2CCCCC2)cc1 [Example 38, (E)-3-(2-Cyclohexylethyl)-2-[2-(4-dimethylaminophenyl)vinyl]benzothiazol-3-ium iodide] | 52 | 120 | –
CCCCCCC[n+]1c(/C=C/c2ccc(N(C)C)c3ccccc23)sc2ccccc21 [Example 39, (E)-2-[2-(4-Dimethylaminonaphthalen-1-yl)vinyl]-3-heptylbenzothiazol-3-ium iodide] | 40 | 160 | –
COc1ccc2c(c1)sc(/C=C/c1ccc(N(C)C)c3ccccc13)[n+]2C [Example 41, (E)-2-[2-(4-Dimethylaminonaphthalen-1-yl)vinyl]-6-methoxy-3-methylbenzothiazol-3-ium iodide] | 26 | 430 | –
CN(C)c1ccc(/C=C/c2sc3ccc4ccccc4c3[n+]2C)c2ccccc12 [Example 42, (E)-2-[2-(4-Dimethylaminonaphthalen-1-yl)vinyl]-1-methylnaphtho[1,2-d]thiazol-1-ium toluene-4-sulfonate] | 42 | 250 | –
CCCCCCC[n+]1c(/C=C/c2ccc(N(CC)CC)cc2)sc2ccccc21 [Example 44, (E)-2-[2-(4-Diethylaminophenyl)vinyl]-3-heptylbenzothiazol-3-ium iodide] | 120 | 140 | –
CCCCCCC[n+]1c(/C=C/c2ccc(N(CCCC)CCCC)cc2)sc2ccccc21 [Example 45, (E)-2-[2-(4-Dibutylaminophenyl)vinyl]-3-heptylbenzothiazol-3-ium iodide] | 90 | 600 | –
CCCCCCC[n+]1c(/C=C/c2ccc(N3CCCC3)cc2)sc2ccccc21 [Example 46, (E)-3-Heptyl-2-[2-[(4-pyrrolidin-1-yl)phenyl]vinyl]benzothiazol-3-ium iodide] | 42 | 160 | –

Further lines, with some results ahead:

IC50 [2] [nM] | IC50 [1, 3] [nM] | Structure (SMILES) | IC50 [1] [nM]
110 | 120 | Nc1ccc(/N=N/c2nc3ccccc3s2)c2ccccc12 [Example 48, 4-(Benzothiazol-2-ylazo)naphthalen-1-ylamine] | –
700 | 3200 | COc1ccc2nc(/N=N/c3ccc(N(C)C)cc3)sc2c1 [Example 49, 2-[[4-(Dimethylamino)phenyl]azo]-6-methoxybenzothiazole] | –
1300 | 1300 | CN(C)c1ccc(/N=N/c2nc3ccc(Cl)cc3s2)cc1 [Example 50, 6-Chloro-2-[[4-(dimethylamino)phenyl]azo]benzothiazole] | –
340 | 2500 | COc1ccc2nc(/N=N/c3ccc(N(C)C)c4ccccc34)sc2c1 [Example 51, [4-(6-Methoxybenzothiazol-2-ylazo)naphthalen-1-yl]dimethylamine] | –
10 | 410 | COc1ccc2c(c1)sc(N=Nc1ccc(N(C)C)cc1)[n+]2C [Example 53, 2-[[4-(Dimethylamino)phenyl]azo]-6-methoxy-3-methylbenzothiazol-3-ium methylsulfate] | –
60 | 1300 | CN(C)c1ccc(N=Nc2sc3ccccc3[n+]2C)cc1 [Example 54, 2-[[4-(Dimethylamino)phenyl]azo]-3-methylbenzothiazolium methylsulfate] | –
